Key:
Salmonella Enteritidis = experiment: Coloration of Salmonella Enteritidis colonies on detection medium; type: cell-based; design: key: 0=no coloration; 0.5=trace of coloration; 1=weak coloration; 2=strong coloration
Method: (§1) Preparation of the detection medium: A volume of 250 ml of detection medium is prepared from a powdered medium having the following composition:
(§2) Melting is carried out at 100° C., and the medium is autoclaved at 121° C. for 15 minutes. The additives are then added to the medium: Magenta C8 (500 mg/l; B-7102, BIOSYNTH, Staad, Switzerland); X-glucoside (75 mg/l; B-7250, BIOSYNTH, Staad, Switzerland); cefsulodine (10 mg/l; C 4786, Sigma, St Quentin Fallavier, France) and various concentrations of the inhibitor O,O-diethyl p-nitrophenyl phosphate (Paraoxon® ethyl; CAS No. 311-45-5; 36186, Riedel-de Haën, St Quentin Fallavier, France; 0; 1; 5 or 10 mg/l).
(§3) The various detection media thus obtained are then poured into Petri dishes.
(§4) Seeding of Salmonella bacteria: 10 μl of stools are deposited onto a Petri dish, this stool suspension is mixed or not mixed with 10 μl of a suspension of Salmonella (0.5 McF) and isolated as 3 dials on a Petri dish. Various […] and various Salmonella strains originating from the applicant's collection are used according to this protocol. The Petri dishes are incubated at 37° C. for 24 hours. The appearance of a coloration at the point of deposit of the stool (“deposit” column) and at the Salmonella colony (“colony” column) is read according to a semi-quantitative scale: • 0=no coloration • 0.5=trace of coloration • 1=weak coloration • 2=strong coloration The results obtained are given in Table 1.
as §2, with “O,O-dimethyl” for “O,O-diethyl”, “methyl;” for “ethyl;”, “950-35-6;” for “311-45-5; 36186,”, “5, 10, 25” for “0; 1; 5 or 10”
(§5) Seeding of Salmonella bacteria: The Petri dishes are inoculated, incubated and read as in Example 1.
(§6) Preparation of the detection medium: 250 ml of the medium of Example 1, in which the O,O-diethyl p-nitrophenyl phosphate is replaced with various concentrations of O,O-di-(2-chloroethyl)-O-(3-chloro-4-methylcoumarin-7-yl)phosphate (Haloxon®; CAS No. 321-55-1; R276995, Sigma, St Quentin Fallavier, France; 0; 1; 10; 100 or 1000 mg/l), are prepared according to the method of Example 1.
(§7) The various selection media thus obtained are then poured into Petri dishes.

Salmonella Typhi = experiment: Coloration of Salmonella Typhi colonies on detection medium; type: cell-based; design: key: 0=no coloration; 0.5=trace of coloration; 1=weak coloration; 2=strong coloration
Method: as §1, §2, §3, §4
as §2, with “O,O-dimethyl” for “O,O-diethyl”, “methyl;” for “ethyl;”, “950-35-6;” for “311-45-5; 36186,”, “5, 10, 25” for “0; 1; 5 or 10”
as §5, §6, §7

[1] = Colonies column read for stool without added strain, Salmonella detection medium; design: key: 0=no coloration; 0.5=trace of coloration; 1=weak coloration; 2=strong coloration; conditions: no strain
Method: as §1, §2, §3, §4
as §2, with “O,O-dimethyl” for “O,O-diethyl”, “methyl;” for “ethyl;”, “950-35-6;” for “311-45-5; 36186,”, “5, 10, 25” for “0; 1; 5 or 10”
as §5, §6, §7

free esterases in stools [2] = experiment: Coloration at the point of deposit of the stool on Candida detection medium; type: biochemical; conditions: summary in words
Method: as §1
(§8) Melting is carried out at 100° C., and the medium is autoclaved at 121° C. for 15 minutes. The additives are then added to the medium: Magenta C8 (500 mg/l; B-7102, BIOSYNTH, Staad, Switzerland); X-glucoside (75 mg/l; B-7250, BIOSYNTH, Staad, Switzerland); cefsulodine (10 mg/l; C 4786, Sigma, St Quentin Fallavier, France), and also the esterase inhibitor: • ? O,O-diethyl p-nitrophenyl phosphate: 5 mg/l • ? O,O-dimethyl p-nitrophenyl phosphate: 25 mg/l or • ? O,O-di-(2-chloroethyl)-O-(3-chloro-4-methylcoumarin-7-yl)phosphate: 75 mg/l
as §7
(§9) Seeding of yeast of the Candida genus: 10 μl of stools are deposited onto a Petri dish, and this stool suspension is mixed or not mixed with 10 μl of a suspension of Candida and isolated as 3 dials on a Petri dish. Various stools and various strains of Candida genus originating from the applicant's collection are used according to this protocol. The Petri dishes are incubated at 37° C. for 24 hours.
(§10) The appearance of a coloration at the point of deposit of the stool and in the Candida colonies is read according to a semi-quantitative scale: • 0=absence of coloration • 0.5=trace coloration • 1=weak coloration • 2=strong coloration.

[3] = Colonies column read for stool without added strain, Candida detection medium; design: key: 0=absence of coloration; 0.5=trace coloration; 1=weak coloration; 2=strong coloration; conditions: Table 4, no strain
Method: as §1, §8, §7, §9, §10

free esterases in stools [4] = experiment: Coloration at the point of deposit of the stool on Candida detection medium; type: biochemical; design: key: 0=no coloration; 0.5=trace of coloration; 1=weak coloration; 2=strong coloration; conditions: Table 4
Method: as §1, §8, §7, §9, §10

Candida albicans = experiment: Coloration of Candida albicans colonies on detection medium; type: cell-based; design: key: 0=no coloration; 0.5=trace of coloration; 1=weak coloration; 2=strong coloration; conditions: stool A
Method: as §1, §8, §7, §9, §10

Cc1c(Cl)c(=O)oc2cc(OP(=O)(OCCCl)OCCCl)ccc12 [O,O-di-(2-chloroethyl)-O-(3-chloro-4-methylcoumarin-7-yl) phosphate]
0: Colonies coloration ([1]; Table 3, 1 mg/l, stool A) | Colonies coloration ([1]; Table 3, 1 mg/l, stool B) | Colonies coloration ([1]; Table 3, 10 mg/l, stool A) | Colonies coloration ([1]; Table 3, 10 mg/l, stool B) | Colonies coloration ([1]; Table 3, 100 mg/l, stool A) | Colonies coloration ([1]; Table 3, 100 mg/l, stool B) | Colonies coloration ([1]; Table 3, 1000 mg/l, stool A) | Colonies coloration ([1]; Table 3, 1000 mg/l, stool B) | Colonies coloration ([3]; 75 mg/l, stool A) | Colonies coloration ([3]; 75 mg/l, stool B)
1: Colonies coloration (Salmonella Typhi; Table 3, 1 mg/l, stool A) | Colonies coloration (Salmonella Typhi; Table 3, 1 mg/l, stool B) | Colonies coloration (Salmonella Typhi; Table 3, 10 mg/l, stool A) | Colonies coloration (Salmonella Typhi; Table 3, 10 mg/l, stool B) | Colonies coloration (Salmonella Typhi; Table 3, 100 mg/l, stool A) | Colonies coloration (Salmonella Typhi; Table 3, 100 mg/l, stool B) | Colonies coloration (Salmonella Typhi; Table 3, 1000 mg/l, stool A) | Colonies coloration (Salmonella Typhi; Table 3, 1000 mg/l, stool B) | Deposit coloration (free esterases in stools [4]; 75 mg/l, stool A, Candida albicans) | Deposit coloration (free esterases in stools [4]; 75 mg/l, stool A, Candida dubliniensis) | Deposit coloration (free esterases in stools [4]; 75 mg/l, stool A, Candida krusei) | Deposit coloration (free esterases in stools [4]; 75 mg/l, stool B, Candida albicans) | Deposit coloration (free esterases in stools [4]; 75 mg/l, stool B, Candida dubliniensis) | Deposit coloration (free esterases in stools [4]; 75 mg/l, stool B, Candida krusei) | Colonies coloration (Candida albicans; Table 4, 75 mg/l)
2: Colonies coloration (Salmonella Enteritidis; Table 3, 1 mg/l, stool A) | Colonies coloration (Salmonella Enteritidis; Table 3, 1 mg/l, stool B) | Colonies coloration (Salmonella Enteritidis; Table 3, 10 mg/l, stool A) | Colonies coloration (Salmonella Enteritidis; Table 3, 10 mg/l, stool B) | Colonies coloration (Salmonella Enteritidis; Table 3, 100 mg/l, stool A) | Colonies coloration (Salmonella Enteritidis; Table 3, 100 mg/l, stool B) | Colonies coloration (Salmonella Enteritidis; Table 3, 1000 mg/l, stool A) | Colonies coloration (Salmonella Enteritidis; Table 3, 1000 mg/l, stool B)
greatly inhibited: Aspecific enzymatic reactions due to the presence of free enzymes (free esterases in stools [2])

CCOP(=O)(OCC)Oc1ccc([N+](=O)[O-])cc1 [O,O-diethyl p-nitrophenyl phosphate]
greatly inhibited: Aspecific enzymatic reactions due to the presence of free enzymes (free esterases in stools [2])
1: Colonies coloration (Salmonella Typhi; Table 1, 1 mg/l, stool A) | Colonies coloration (Salmonella Typhi; Table 1, 1 mg/l, stool B) | Colonies coloration (Salmonella Typhi; Table 1, 5 mg/l, stool A) | Colonies coloration (Salmonella Typhi; Table 1, 5 mg/l, stool B) | Colonies coloration (Salmonella Typhi; Table 1, 10 mg/l, stool A) | Colonies coloration (Salmonella Typhi; Table 1, 10 mg/l, stool B) | Deposit coloration (free esterases in stools [4]; 5 mg/l, stool A, Candida albicans) | Deposit coloration (free esterases in stools [4]; 5 mg/l, stool A, Candida dubliniensis) | Deposit coloration (free esterases in stools [4]; 5 mg/l, stool A, Candida krusei) | Deposit coloration (free esterases in stools [4]; 5 mg/l, stool B, Candida albicans) | Deposit coloration (free esterases in stools [4]; 5 mg/l, stool B, Candida dubliniensis) | Deposit coloration (free esterases in stools [4]; 5 mg/l, stool B, Candida krusei) | Colonies coloration (Candida albicans; Table 4, 5 mg/l)
2: Colonies coloration (Salmonella Enteritidis; Table 1, 1 mg/l, stool A) | Colonies coloration (Salmonella Enteritidis; Table 1, 1 mg/l, stool B) | Colonies coloration (Salmonella Enteritidis; Table 1, 5 mg/l, stool A) | Colonies coloration (Salmonella Enteritidis; Table 1, 5 mg/l, stool B) | Colonies coloration (Salmonella Enteritidis; Table 1, 10 mg/l, stool A) | Colonies coloration (Salmonella Enteritidis; Table 1, 10 mg/l, stool B)
0: Colonies coloration ([1]; Table 1, 1 mg/l, stool A) | Colonies coloration ([1]; Table 1, 1 mg/l, stool B) | Colonies coloration ([1]; Table 1, 5 mg/l, stool A) | Colonies coloration ([1]; Table 1, 5 mg/l, stool B) | Colonies coloration ([1]; Table 1, 10 mg/l, stool A) | Colonies coloration ([1]; Table 1, 10 mg/l, stool B) | Colonies coloration ([3]; 5 mg/l, stool A) | Colonies coloration ([3]; 5 mg/l, stool B)

COP(=O)(OC)Oc1ccc([N+](=O)[O-])cc1 [O,O-dimethyl p-nitrophenyl phosphate]
0: Colonies coloration ([1]; Table 2, 5 mg/l, stool C) | Colonies coloration ([1]; Table 2, 5 mg/l, stool D) | Colonies coloration ([1]; Table 2, 10 mg/l, stool C) | Colonies coloration ([1]; Table 2, 10 mg/l, stool D) | Colonies coloration ([1]; Table 2, 25 mg/l, stool C) | Colonies coloration ([1]; Table 2, 25 mg/l, stool D) | Colonies coloration ([3]; 25 mg/l, stool A) | Colonies coloration ([3]; 25 mg/l, stool B)
greatly inhibited: Aspecific enzymatic reactions due to the presence of free enzymes (free esterases in stools [2])
2: Colonies coloration (Salmonella Enteritidis; Table 2, 5 mg/l, stool C) | Colonies coloration (Salmonella Enteritidis; Table 2, 5 mg/l, stool D) | Colonies coloration (Salmonella Enteritidis; Table 2, 10 mg/l, stool C) | Colonies coloration (Salmonella Enteritidis; Table 2, 10 mg/l, stool D) | Colonies coloration (Salmonella Enteritidis; Table 2, 25 mg/l, stool C) | Colonies coloration (Salmonella Enteritidis; Table 2, 25 mg/l, stool D)
0.5: Colonies coloration (Salmonella Typhi; Table 2, 5 mg/l, stool C) | Colonies coloration (Salmonella Typhi; Table 2, 5 mg/l, stool D) | Colonies coloration (Salmonella Typhi; Table 2, 10 mg/l, stool D) | Colonies coloration (Salmonella Typhi; Table 2, 25 mg/l, stool C) | Colonies coloration (Salmonella Typhi; Table 2, 25 mg/l, stool D)
1: Colonies coloration (Salmonella Typhi; Table 2, 10 mg/l, stool C) | Deposit coloration (free esterases in stools [4]; 25 mg/l, stool A, Candida albicans) | Deposit coloration (free esterases in stools [4]; 25 mg/l, stool A, Candida dubliniensis) | Deposit coloration (free esterases in stools [4]; 25 mg/l, stool A, Candida krusei) | Deposit coloration (free esterases in stools [4]; 25 mg/l, stool B, Candida albicans) | Deposit coloration (free esterases in stools [4]; 25 mg/l, stool B, Candida dubliniensis) | Deposit coloration (free esterases in stools [4]; 25 mg/l, stool B, Candida krusei) | Colonies coloration (Candida albicans; Table 4, 25 mg/l)
